Measured values taken from patent US20230172894A1, “COMBINATION TREATMENT FOR FUMARATE-RELATED DISEASES” (IMCYSE SA, priority 2020, published 2023).

Tested on: experimental auto-immune encephalomyelitis (EAE) development in mice
Experiment: Example 1 (repeated experiment): plasma neurofilament light (NF-L) levels in EAE mice, Simoa NF-light assay
Type: in vivo, female C57BL/6 mice
Conditions: Example 1 regimen repeated; Day 28 plasma; vs negative control
Description: On Day 28, blood was collected from all mice into tubes containing K2EDTA and mixed gently. Blood was then centrifuged at ˜10000 g for 5 minutes. Plasma was transferred into Eppendorf tubes and stored at −80° C. until shipment to Quanterix™. Plasma Neurofilament light (NF-L) protein levels were quantified using Simoa® NF-light Advantage kit, a digital immunoassay for the quantitative determination of NF-L in serum, plasma and CSF. The used antibodies (Uman Diagnostics, Umea Sweden) also cross react with murine, bovine and macaque NF-L epitopes and as such, this assay can be used for research with these species. All samples were tested in duplicate at a dilution factor of 40×.
Neurofilament light (NF-L) is a 68 kDa cytoskeletal filament protein that is expressed in neurons, as one of the major components of the neuronal cytoskeleton that provide structural support for the axon. Neurofilaments can be released following axonal damage or neuronal degeneration.

For HCPYCGWYRSPFSRVVHLYR [IMCY-0189], the “plasma NF-L levels” value was “reduced NF-L levels”.
